Source: patent publication US6579982B1, “Pyrimidine-2,4,6-trione metalloproteinase inhibitors” (Pfizer Inc., priority 1999, dated 2003)

Row | Compound | melting point [°C]
1 | CC1(Oc2ccc(Oc3ccc(F)cc3)cc2)C(=O)NC(=O)NC1=O | 187 to 189
2 | CC1(Oc2cccc(-c3ccccc3)c2)C(=O)NC(=O)NC1=O | 175
3 | CC1(Oc2ccc(-c3ccccc3)cc2)C(=O)NC(=O)NC1=O | 200 to 202

Continued, values first:

Row | melting point [°C] | Compound
4 | 182 | CC1(Oc2ccc(Oc3ccccc3)cc2)C(=O)NC(=O)NC1=O
5 | 59 to 60 | CCCCC1(Oc2ccc(Oc3ccccc3)cc2)C(=O)NC(=O)NC1=O
6 | 183 | CCCCC1(Oc2ccc(Oc3ccc(F)cc3)cc2)C(=O)NC(=O)NC1=O
